Test results published in patent publication US20110009493A1 (priority 2008, published 2011).
Read-outs that look alike come from different tables or passages of the source.

What was measured:
[1] = system: Mycobacterium bovis; assay type: cell-based
[2] = system: Pseudomonas aeruginosa; assay: Bacterial testing, ISO-GRID membrane filter system; assay type: cell-based; settings: 400 ppm hard water; for Kill of Pseudomonas aeruginosa (in words): 1 minute, 5% soil; for Results (percent kill) / Results Log10 Reduction: 1 minute contact, 5% organic soil, bacteria 6.81 log10 (CFU/g)
Method: • Bacteria (gram negative): Pseudomonas aeruginosa • Pathogenesis: Opportunistic pathogen in humans, cause of 1 in 10 nosocomial infections^1, causes wound, blood, burn, urinary tract, lung and ear infections. ^1http://textbookofbacteriology.net/pseudomonas.html • Concentration of Bacteria: 6.81 log10 (CFU/g) • Solution Contact Time: 1 minute • Dilution media: hard water (400 ppm) • Bio burden: 5% organic soil
The tests were performed using the ISO-GRID™ membrane filter system (Neogen Corp., Lansing, Mich., USA) according to a slightly modified procedure described in the ISO-GRID™ Methods Manual (3rd Ed.; QA Life Sciences, Inc., San Diego, Calif., USA; 1999).

[3] = ten minutes contact, 5% fetal bovine serum, 5.8*10^5 CFU/carrier
[4] = ten minutes contact, 5% fetal bovine serum

Row | Compound | Kill of Pseudomonas aeruginosa (in words) [2] | Kill of Mycobacterium bovis (in words) [1, 4] | Results (percent kill) [2] | Results Log10 Reduction [2] | further results
1 | O=Cc1ccccc1C=O [2., Orthophthalaldehyde] |  |  |  |  | Pass/Fail (Intermediate 30 day read) [1, 3]: Fail; Results (Intermediate 30 day read) [1, 3]: 1/10
2 | O=Cc1ccccc1C=O [OPA, orthophthalaldehyde] | Neither OPA nor DDABC alone were sufficient to kill all | neither OPA, nor DDABC alone was sufficient to provide complete kill |  |  | 
3 | O=Cc1ccccc1C=O [compound 4, Orthophthalaldehyde] |  |  | 40.2% | 2.74 Log10 | 
4 | Didecyldimethylammonium bicarbonate/carbonate [compound 3] |  |  | 87.4% | 5.95 Log10 | 
5 | didecyldimethylammomum bicarbonate/carbonate [1.] |  |  |  |  | Pass/Fail (Intermediate 30 day read) [1]: Fail; Results (Intermediate 30 day read) [1]: 1/10
6 | didecyldimethylammonium bicarbonate/carbonate [DDABC] | Neither OPA nor DDABC alone were sufficient to kill all | neither OPA, nor DDABC alone was sufficient to provide complete kill |  |  | 
